Laboratory results: publication PMC8072580, “Predicting Pharmacokinetic Properties of Potential Anticancer Agents via Their Chromatographic Behavior on Different Reversed Phase Materials” (International Journal of Molecular Sciences, 2021)
Like-named read-outs stand apart in the source and are kept apart here.

Columns and labels:
[1] = parameters: method as in PMID 31864156; settings: end-capped ODS column, aqueous acetonitrile; cited from earlier work
[2] = Micellar liquid chromatography (MLC), ODS-2 column, Brij 35 effluent: chromatographic lipophilicity; type: physicochemical; settings: pH 7.4, ODS-2 column, 25 °C
From the text: There are several theories that describe the effect of the concentration of the surfactant in the effluent on the retention of the solute in MLC [23]. The following Foley’s equation is best known in lipophilicity studies:(2) 1/k=1/km+KAM/km[M] where [M] is the total concentration of the surfactant in the mobile phase minus CMC; KAM is the constant that describes solute-micelle binding; and km is the solute retention parameter at the micellar concentration of zero, i.e., when the concentration of the surfactant monomer is equal to CMC. The KAM and km parameters can be evaluated from the slope and intercept of the experimental 1/k vs. [M] relationships.
Equation (2) describes a linear dependence between decreasing retention and increasing micelle concentration. This equation is valid for aqueous solutions of surfactant or mobile phases with the same concentrations of the organic modifier. The micellar retention parameter, log km, is considered analogous to the log kw parameter evaluated in RPLC. According to the information presented above, this parameter is considered to be a lipophilicity descriptor, and Equation (2) is a simple way to indirectly determine the lipophilic properties of compounds. It is postulated that retention in micellar chromatography depends on hydrophobic (lipophilic), electronic, and steric features of the compounds in a similar way as has been noted concerning pharmacokinetic phenomena. The additional similarity results from the fact that the phospholipids, cholesterol, fatty acids, and triglycerides included in the extracellular and intracellular fluids also form micelles with proteins.
(§1) In our investigations, the micellar retention factors were used to calculate the log km parameters using Equation (2) (Table 2). For all of the compounds 1-19, the relationships of 1/k vs. [M] were obtained with very good linearity, confirming that Foley’s equation correctly describes the effect of the concentration of the surfactant in the effluent on the retention of the solute. In our studies, the micellar log km parameters for three pharmacologically active sets of compounds 1-6, 7-14, and 15-19 and the log k factors for solutes 15-19 obtained on IAM and end-capped ODS stationary phases were determined experimentally. All these retention factors, together with the log kw values for compounds 1-14 obtained in our earlier investigations on IAM and end-capped ODS stationary phases, were used as lipophilicity descriptors in the QSARs methodology to predict the pharmacokinetic descriptors of the compounds that were tested.
(§2) Shimadzu Vp (Shimadzu, Izabelin, Polska) liquid chromatographic system was used in HPLC measurements. It was equipped with an LC 10AT pump, SPD 10A UV–Vis detector, SCL 10A system controller, CTO-10 AS chromatographic oven, and Rheodyne injector valve with a 20 μL loop. As the stationary phases, 3 different revered-phase materials were applied: Spherisorb ODS-2 column, 125 × 4 mm i.d., 5 μm (Merck, Lublin, Poland), Regis IAM.PC.DD2 column, 100 × 4.6 mm i.d., 10 μm (Morton Grove, Illinois, USA), and Purosphere RP-18e column, 125 × 4 mm i.d., 5 μm (Merck, Lublin, Poland).
In the MLC technique with an ODS-2 column, buffered Brij 35 mixtures (0.15; 0.125, 0.10, and 0.075 mol/L) with 7% (v/v) addition of isopropanol were used as mobile phases. The buffer was prepared from 0.01 mol/L solutions of Na2HPO4 and citric acid, and the pH 7.4 value was fixed before mixing with an organic modifier. The flow rate was 1 mL/min. Buffered acetonitrile mixtures were used as effluents with the IAM column. Acetonitrile concentration, expressed as a volume fraction, was changed in the range of 0.2–0.5, with the constant step of 0.1. The flow rate was 1.3 mL/min. Acetonitrile concentration was changed in the range of 0.3–0.6 with the RP-18e column, with the constant step of 0.1 and flow rate of 0.1 mL/min. As solutes tested there were used 19 newly designed structurally related compounds. […]

[3] = parameters: method as in PMID 31864156; settings: IAM.PC.DD2 column, buffered acetonitrile; cited from earlier work
human cancer cells = tested on: human cancer cells; parameters: method as in PMID 31864156, PMID 16545495, PMID 25528370; settings: cited from earlier work
[4] = End-capped ODS (RP-18e) column chromatography: log kw,ODS; type: physicochemical; settings: acetonitrile 0.3-0.6, 25 °C
From the text: as §1, §2
(§3) In the MLC technique with an ODS-2 column, buffered Brij 35 mixtures (0.15; 0.125, 0.10, and 0.075 mol/L) with 7% (v/v) addition of isopropanol were used as mobile phases. The buffer was prepared from 0.01 mol/L solutions of Na2HPO4 and citric acid, and the pH 7.4 value was fixed before mixing with an organic modifier. The flow rate was 1 mL/min. Buffered acetonitrile mixtures were used as effluents with the IAM column. Acetonitrile concentration, expressed as a volume fraction, was changed in the range of 0.2–0.5, with the constant step of 0.1. The flow rate was 1.3 mL/min. Acetonitrile concentration was changed in the range of 0.3–0.6 with the RP-18e column, with the constant step of 0.1 and flow rate of 0.1 mL/min. As solutes tested there were used 19 newly designed structurally related compounds. Samples were dissolved in acetonitrile c.a. 0.005 mg/mL. The compounds were detected under UV light at λmax 254 nm. All measurements were carried out at a constant temperature (25 °C). The dead time values were measured from non-retained compound (e.g., sodium chloride) peaks. All reported k values are the average of at least 3 independent measurements.

[5] = Immobilized artificial membrane (IAM.PC.DD2) chromatography: log kw,IAM; type: physicochemical; settings: IAM.PC.DD2 column, buffered acetonitrile 0.2-0.5, 25 °C
From the text: as §1, §2, §3

[6] = 0.075 M Brij 35, 7% isopropanol
[7] = 0.125 M Brij 35, 7% isopropanol

Row | Compound | log kw,ODS [1] | k (MLC retention factor) [2, 6] | k (MLC retention factor) ([2]; 0.1 M Brij 35, 7% isopropanol) | k (MLC retention factor) [2, 7] | k (MLC retention factor) ([2]; 0.15 M Brij 35, 7% isopropanol) | log kw,IAM [3] | antiproliferative effects in cancer cells compared with normal cells (human cancer cells) | log kw,ODS [4] | log kw,IAM [5]
1 | CC(C)c1nnc2n(c1=O)CCN2c1ccccc1 [Compound 1] | 1.59 [19] | 13.73 | 12.03 | 10.47 | 10.53 | 0.76 [19] |  |  | 
2 | Cc1ccc(N2CCn3c2nnc(C(C)C)c3=O)cc1 [Compound 2] | 2.01 [19] | 25.51 | 21.45 | 18.25 | 17.34 | 1.05 [19] |  |  | 
3 | CC(C)c1nnc2n(c1=O)CCN2c1ccccc1Cl [Compound 3] | 1.42 [19] | 8.98 | 8.18 | 7.46 | 7.20 | 0.65 [19] |  |  | 
4 | CC(C)c1nnc2n(c1=O)CCN2c1cccc(Cl)c1 [Compound 4] | 2.38 [19] | 39.84 | 31.65 | 24.39 | 22.52 | 1.49 [19] |  |  | 
5 | CC(C)c1nnc2n(c1=O)CCN2c1ccc(Cl)cc1 [Compound 5] | 2.32 [19] | 41.53 | 33.76 | 26.18 | 24.10 | 1.39 [19] |  |  | 
6 | CC(C)c1nnc2n(c1=O)CCN2c1ccc(Cl)c(Cl)c1 [Compound 6] | 2.68 [19] | 60.81 | 46.76 | 34.01 | 29.82 | 1.67 [19] |  |  | 
7 | Cc1ccc(N2CCn3c2nnc(C(F)(F)F)c3=O)cc1 [Compound 9] | 2.16 [19] | 25.67 | 21.44 | 17.64 | 16.14 | 1.25 [19] |  |  | 
8 | COc1ccccc1N1CCn2c1nnc(C(F)(F)F)c2=O [Compound 10] | 1.65 [19] | 5.89 | 5.40 | 5.04 | 4.79 | 0.67 [19] | clearly higher antiproliferative effects in cancer cells than in normal cells |  | 
9 | O=c1c(C(F)(F)F)nnc2n1CCN2c1ccccc1Cl [Compound 11] | 1.86 [19] | 10.61 | 9.36 | 8.27 | 7.66 | 0.88 [19] | clearly higher antiproliferative effects in cancer cells than in normal cells |  | 
10 | O=c1c(C(F)(F)F)nnc2n1CCN2c1cccc(Cl)c1 [Compound 12] | 2.43 [19] | 36.90 | 29.09 | 22.17 | 19.83 | 1.66 [19] |  |  | 
11 | O=c1c(C(F)(F)F)nnc2n1CCN2c1ccc(Cl)cc1 [Compound 13] | 2.40 [19] | 41.71 | 32.28 | 25.32 | 22.45 | 1.58 [19] |  |  | 
12 | O=c1c(C(F)(F)F)nnc2n1CCN2c1ccc(Cl)c(Cl)c1 [Compound 14] | 2.96 [19] | 59.61 | 44.28 | 32.68 | 28.56 | 2.29 [19] |  |  | 
13 | CCOC(=O)c1nnc2n(c1=O)CCN2c1ccccc1 [Compound 15] |  | 2.09 | 1.90 | 1.81 | 1.84 |  |  | 1.21 | 0.48
14 | CCOC(=O)c1nnc2n(c1=O)CCN2c1ccc(C)cc1 [Compound 16] |  | 4.49 | 4.04 | 3.81 | 3.75 |  |  | 2.80 | 1.93
15 | CCOC(=O)c1nnc2n(c1=O)CCN2c1cccc(Cl)c1 [Compound 17] |  | 10.12 | 8.72 | 8.00 | 8.00 |  | clearly higher antiproliferative effects in cancer cells than in normal cells | 2.62 | 1.73
16 | CCOC(=O)c1nnc2n(c1=O)CCN2c1ccc(Cl)cc1 [Compound 18] |  | 9.94 | 8.48 | 7.53 | 7.75 |  |  | 1.92 | 1.12
